This note sets out measurements from US5274121A, “N-methyl-N-[4-(1-pyrrolidinyl)-2-butynyl]amide congeners as muscarinic agents” (priority 1992, dated 1993).

Test [1] relates to NG108-15 neuroblastoma x glioma cells (m3 AChR). Put plainly: Inhibition of PGE1-stimulated cAMP levels in NG108-15 cells. It counts as cell-based. To be noted: for inhibition at 100 µM: relative to control with no compounds added, conc. of compounds = 100 μM, read-out: cAMP Inhib; for agonist activity, in words: Table I assays. Here is the method:
(§1) Compounds of the present invention were tested for their binding affinities and activation of second messengers in selective muscarinic cholinergic receptor systems. It is believed that m1 -, m4 -, and m5 AChRs couple exclusively to PI turnover, whereas m2 - and m3 -AChRs couple only to adenylate cyclase inhibition.
(§2) Compounds of the present invention were screened for their biological activity. Assay systems using SK-N-SH human neuroblastoma cells which express only m4 -AChRs coupled to PI turnover, and NG108-15 neuroblastoma x glioma cells which express only m3 AChRs coupled to adenylate cyclase inhibition were used.
Inhibition of PGE1 -stimulated cAMP levels in NG108-15 cells
Cells were plated in 24-well plates and were grown to 90% confluence. The growth media was then replaced with a solution of 1 mM IBMX in DMEM-Hepes (0.5 mL per well) and the cells were incubated for 10 min at 37° C. Agonists were then added at a final concentration of 100 μM, along with PGE1 (final conc, 5 μM), and the cells were incubated for a further 15 min at 37° C. The reaction Was terminated by aspirating the solution and adding 0.5 mL of 0.1N HCl. In order to extract the cAMP from the cells, they were incubated in 0.1 N HCl for 30 min at room temperature. An aliquot (35 50 μL) was removed, lyophilized, and assayed for cAMP by radioimmunoassay.
In general terms: Cyclic AMP is a second messenger, typically raised through Gs and lowered through Gi signalling.

For test [2], the target named is T1, muscarinic receptors, SK-N-SH cell membranes (m4 AChR) (Homo sapiens, UniProt P20309).
T1 construct: membranes from SK-N-SH cells; endogenous in cells; host or cells: SK-N-SH human neuroblastoma cells (crude membrane fraction)
T1 sequence (P20309 whole entry): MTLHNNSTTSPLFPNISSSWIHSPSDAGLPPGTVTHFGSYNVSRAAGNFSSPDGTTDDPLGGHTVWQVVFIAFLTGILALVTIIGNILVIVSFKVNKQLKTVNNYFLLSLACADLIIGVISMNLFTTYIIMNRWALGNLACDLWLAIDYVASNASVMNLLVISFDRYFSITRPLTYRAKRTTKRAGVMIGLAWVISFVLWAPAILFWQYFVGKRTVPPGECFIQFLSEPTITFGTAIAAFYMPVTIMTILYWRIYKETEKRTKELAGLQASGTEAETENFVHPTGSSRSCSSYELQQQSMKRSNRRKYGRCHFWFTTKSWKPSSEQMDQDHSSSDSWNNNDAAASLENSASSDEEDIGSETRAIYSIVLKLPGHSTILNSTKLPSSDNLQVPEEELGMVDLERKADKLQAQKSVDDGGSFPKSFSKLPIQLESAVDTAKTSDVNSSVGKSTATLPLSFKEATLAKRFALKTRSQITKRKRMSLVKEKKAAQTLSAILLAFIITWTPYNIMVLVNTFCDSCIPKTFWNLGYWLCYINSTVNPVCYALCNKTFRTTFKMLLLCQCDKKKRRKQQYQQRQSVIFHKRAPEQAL
Nature of the test: Inhibition of [3H]-NMS binding to membranes from SK-N-SH cells. The conditions noted are these: SK-N-SH cells; conc. of compounds = 100 μM.
Description: as §2
(§3) Compounds of the present invention were also screened for their relative binding affinities. Assay systems which measured the inhibition of ^3 H-N-methylscopolamine (^3 H-NMS) binding to membranes from NG108-15 cells and membranes from SK-N-SH cells were used.
(§4) Inhibition of [^3 H]-NMS binding
(§5) Cells were grown to confluence, harvested, and a crude membrane fraction was obtained. […] The total volume was 1 mL. The incubation was terminated by rapid filtration over GF/B filters using a Brandel cell harvester. The filters were washed three times with ice-cold 0.9% NaCl, equilibrated in scintillation counting fluid and counted on a Beckman LS 5801 liquid scintillation counter at 47% efficiency. Non-specific binding was determined by coincubation with 1 μM atropine, and amounted to less than 15% of total counts. It was routinely subtracted from the total counts.

Test [3] has as its target T2, muscarinic receptors, NG108-15 cell membranes (m3 AChR) (Mus musculus, UniProt P32211).
T2 construct: membranes from NG108-15 cells; endogenous in cells; host or cells: NG108-15 neuroblastoma x glioma hybrid cells (crude membrane fraction)
T2 sequence (P32211 1-479): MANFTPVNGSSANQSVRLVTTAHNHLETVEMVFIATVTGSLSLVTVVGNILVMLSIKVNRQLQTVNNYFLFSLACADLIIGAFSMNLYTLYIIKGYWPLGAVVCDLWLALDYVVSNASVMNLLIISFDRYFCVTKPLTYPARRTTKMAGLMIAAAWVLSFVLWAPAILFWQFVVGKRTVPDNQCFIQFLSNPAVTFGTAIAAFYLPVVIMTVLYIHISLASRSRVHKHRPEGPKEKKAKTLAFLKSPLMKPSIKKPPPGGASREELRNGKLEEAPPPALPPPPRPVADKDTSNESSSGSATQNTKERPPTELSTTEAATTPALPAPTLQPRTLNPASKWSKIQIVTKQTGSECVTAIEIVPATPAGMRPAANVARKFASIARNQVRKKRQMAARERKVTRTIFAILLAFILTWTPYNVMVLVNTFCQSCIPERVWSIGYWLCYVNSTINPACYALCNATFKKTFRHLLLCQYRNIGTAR
Nature of the test: Inhibition of [3H]-NMS binding to membranes from NG108-15 cells. To be noted: for inhibition at 100 µM: NG108-15 cells, conc. of compounds = 100 μM; for binding to muscarinic receptors, in words: 3H-NMS binding, NG108-15 and SK-N-SH membranes.
Description: as §2, §3, §4, §5

For test [4], the system named is SK-N-SH human neuroblastoma cells (m4 AChR). Nature of the test: Stimulation of PI turnover in SK-N-SH cells. It counts as cell-based. The conditions noted are these: Homo sapiens, 0.5 h; SK-N-SH cells; percent relative to the activity of OXO-M; conc. of compounds = 100 μM; read-out: Pi turnover. Here is the method: as §1, §2
Stimulation of PI turnover in SK-N-SH cells
Cells were plated into 24-well plates at 100,000 cells per well. After 24 hours, they were labeled overnight with 2 μCi per well of [^3 H]-myo-inositol (American Radiolabeled Chemicals, Inc., St. Louis, Mo.; 15 Ci/mM; 2 μL of stock per mL of media). The cells were then rinsed twice with 10 mM LiCl in DMEM-Hepes and the cells were incubated in this solution for 5 min at 37° C. The indicated compound was then added at a final concentration of 100 μM and the cells were incubated for another 30 min at 37° C. The reaction was stopped by aspirating the solution and adding cold methanol to the cells. After transferring the cells to a glass tube and sonicating briefly, chloroform and water were added to make a two-phase system. The upper aqueous phase was applied to 0.6 mL anion exchange columns (AG X8, Bio-Rad) and the columns were washed and total inositol phosphates were eluted with 1M ammonium formate and 0.1M formic acid.

Read-outs that look alike come from different tables or passages of the source.

`CN(CC#CCN1CCCC1)C(=O)CCCN` [Compound 021]: the inhibition at 100 µM in test [1] (NG108-15, NG108-15 cells) amounted to 3.7 ± 2%; in test [2], 20 ± 1.5%; in test [3], 12.1 ± 2.2%.
As to `CN(CC#CCN1CCCC1)C(=O)CCCCNC(=O)OC(C)(C)C` [Compound 035], the values for the inhibition at 100 µM in test [1] (NG108-15 cells), in test [2] and in test [3] were 0.5 ± 0.3%, 32.1 ± 2.1% and 26.7 ± 1.6%, respectively. The Emax at 100 µM in test [4] was found to be 1 ± 1%.
For `CC(=O)NCCCCCC(=O)N(C)CC#CCN1CCCC1` [Compound 041], in that order: 3 ± 1.7%, 17.4 ± 3.6%, 22.7 ± 2.8% and 1 ± 1%.
Take `CN(CC#CCN1CCCC1)C(=O)CCNC(=O)OC(C)(C)C` [Compound 016]: the “agonist activity in NG108-15 cells (cAMP inhibition), in words” value in test [1] (NG108-15 cells) is “substantial activity”. In addition, the inhibition at 100 µM in test [1] (NG108-15 cells) is 12.5 ± 2.7%; in test [2], 45.1 ± 2.5%; in test [3] it was 36.3 ± 3.1%.
For the compound `CN(CC#CCN1CCCC1)C(=O)CCCCN` [Compound 036], the inhibition at 100 µM in test [1] (NG108-15, NG108-15 cells) stood at 15.8 ± 2.7%; in test [2] it was 34.4 ± 0.3%; in test [3], 22.4 ± 3.2%. Also, the “agonist activity in NG108-15 cells (cAMP inhibition), in words” value in test [1] (NG108-15 cells) was “substantial activity”.
Take `CC(=O)NCCCCCCC(=O)N(C)CC#CCN1CCCC1` [Compound 049]: the inhibition at 100 µM was 6.9 ± 2.9% in test [1] (NG108-15 cells), 24.6 ± 3.1% in test [2] and 20.4 ± 5.5% in test [3].
In the case of `CN(CC#CCN1CCCC1)C(=O)CCCCCNC(=O)CNC(=O)OC(C)(C)C` [Compound 050], the inhibition at 100 µM in test [1] (NG108-15 cells) was found to be 0%; in test [2] it was 50%; in test [3] it was 51%.
On to `CN(CC#CCN1CCCC1)C(=O)CCCCCN` [Compound 039], for which the inhibition at 100 µM in test [1] (NG108-15, NG108-15 cells) is 14.3 ± 1%; in test [2], 55.6 ± 1.9%; in test [3], 37.9 ± 3.2%. For the same compound, the “agonist activity in NG108-15 cells (cAMP inhibition), in words” value in test [1] (NG108-15 cells) is recorded as “substantial activity”.
On to `CN(CC#CCN1CCCC1)C(=O)CCCNC(=O)CCNC(=O)OC(C)(C)C` [Compound 053], for which the inhibition at 100 µM came out at 0% in test [1] (NG108-15 cells), 40% in test [2] and 23% in test [3].
For `CN(CC#CCN1CCCC1)C(=O)CCCNC(=O)CNC(=O)OC(C)(C)C` [Compound 052, N-Methyl-N-[4-(1-pyrrolidinyl)-2-butynyl]-5-(N-[2-(N-Boc-amino)ethanoyl]amino)butanamide], in that order: 0%, 40% and 5%.
As for `CC(=O)NCCCCC(=O)N(C)CC#CCN1CCCC1` [Compound 040], the inhibition at 100 µM in test [1] (NG108-15 cells) was 5.2 ± 2.2%; in test [2], 29.4 ± 1%; in test [3], 17.9 ± 7.9%.
Turning to `CN(CC#CCN1CCCC1)C(=O)CNC(=O)OC(C)(C)C` [Compound 006, N-Methyl-N-[4-(1-pyrrolidinyl)-2-butynyl]-2-(N-Boc-amino) acetamide], the “agonist activity in NG108-15 cells (cAMP inhibition), in words” value in test [1] (NG108-15 cells) was “substantial activity”. Moreover, the figures for the inhibition at 100 µM in test [1] (NG108-15 cells), in test [2] and in test [3] were 7 ± 2.9%, 40 ± 2.1% and 32.6 ± 1.5%, respectively.
Regarding `CN(CC#CCN1CCCC1)C(=O)CCCCCNC(=O)OC(C)(C)C` [Compound 038], the figures for the inhibition at 100 µM in test [1] (NG108-15 cells), in test [2] and in test [3] were 0%, 39.1 ± 2.4% and 31.9 ± 0.9%, respectively.
For `CN(CC#CCN1CCCC1)C(=O)CCCCCCNC(=O)OC(C)(C)C` [Compound 045], the inhibition at 100 µM in test [1] (NG108-15 cells) came out at 0%; in test [2], 81.4 ± 2.4%; in test [3], 77.9 ± 2.4%. Further, in test [1], the “agonist activity, in words” value is “inactive as agonists”. The “binding to muscarinic receptors, in words” value (“binding” for short) in test [3] was “most active”.
Consider `CC(=O)NCCCC(=O)N(C)CC#CCN1CCCC1` [Compound 022], for which the inhibition at 100 µM in test [1] (NG108-15, NG108-15 cells) was determined as 8 ± 3.7%; in test [2] it was 15.6 ± 1.6%; in test [3] it was 19.1 ± 1.8%. Besides, the “agonist activity in NG108-15 cells (cAMP inhibition), in words” value in test [1] (NG108-15 cells) is listed as “substantial activity”. Besides, the Emax at 100 µM in test [4] worked out at 14 ± 5%.
For `CC(=O)NCCC(=O)N(C)CC#CCN1CCCC1` [Compound 018], the inhibition at 100 µM in test [1] (NG108-15, NG108-15 cells) is 10.2 ± 4.8%; in test [2], 67.4 ± 3.3%; in test [3] it was 67.7 ± 3.6%.
As to `CN(CC#CCN1CCCC1)C(=O)CCCCCNC(=O)c1ccccc1` [Compound 054], the inhibition at 100 µM in test [1] (NG108-15 cells) is 0%; in test [2] it was 49%; in test [3] it was 35%.
As to `CN(CC#CCN1CCCC1)C(=O)CCCCCCN` [Compound 047], the inhibition at 100 µM in test [1] (NG108-15, NG108-15 cells) turned out to be 3 ± 1.2%; in test [2], 81.9 ± 1%; in test [3], 72.1 ± 2.7%. The “agonist activity, in words” value in test [1] is “inactive as agonists”. For the same compound, the “binding” value in test [3] is listed as “most active”.
For `CN(CC#CCN1CCCC1)C(=O)CCCNC(=O)c1ccccc1` [Compound 055], the values for the inhibition at 100 µM in test [1] (NG108-15 cells), in test [2] and in test [3] were 0%, 27% and 16%, respectively.
On to `CC(=O)NCCCCCCCC(=O)N(C)CC#CCN1CCCC1` [Compound 048], for which the inhibition at 100 µM in test [1] (NG108-15 cells) was determined as 0%; in test [2], 59.1 ± 0.8%; in test [3], 50.4 ± 4.9%.
In the same order, the values of `CN(CC#CCN1CCCC1)C(=O)CCCCCNC(=O)CCNC(=O)OC(C)(C)C` [Compound 051] are 0%, 60% and 51%.
With `CN(CC#CCN1CCCC1)C(=O)CCCCCCCN` [Compound 046], the inhibition at 100 µM in test [1] (NG108-15 cells) is 0%; in test [2], 93.7 ± 1.8%; in test [3], 92.3 ± 3.2%. In addition, in test [1], the “agonist activity, in words” value is “inactive as agonists”. In test [3], the “binding” value is “most active”.
For `CN(CC#CCN1CCCC1)C(=O)CCCCCCCNC(=O)OC(C)(C)C` [Compound 043], in that order: 0%, 92.1 ± 1%, 89 ± 2.5%, “inactive as agonists” and “most active”.
`CN(CC#CCN1CCCC1)C(=O)CCCNC(=O)OC(C)(C)C` [Compound 020]: the inhibition at 100 µM in test [1] (NG108-15 cells) turned out to be 3.5 ± 1.7%; in test [2] it was 32.1 ± 0.7%; in test [3], 24.4 ± 2.5%.
